Legend:
[1] = test system: carbonic anhydrase II; details: ref WOMBAT (26); cited from earlier work
[2] = molecular target: human 5-HT2A receptor (Homo sapiens, UniProt P28223); assay: cell-based
[3] = molecular target: σ1 receptor; details: read-out: Kd for σ1; cited from earlier work
[4] = test system: hERG channel; details: cited from earlier work
[5] = molecular target: 5-HT1D receptor (Homo sapiens, UniProt P28221); details: ref Supplementary Table 3; cited from earlier work
[6] = molecular target: Histamine H4 receptor (Homo sapiens, UniProt Q9H3N8); assay: biochemical; format: binding
Chain of Histamine H4 receptor (Q9H3N8 whole entry, species assumed): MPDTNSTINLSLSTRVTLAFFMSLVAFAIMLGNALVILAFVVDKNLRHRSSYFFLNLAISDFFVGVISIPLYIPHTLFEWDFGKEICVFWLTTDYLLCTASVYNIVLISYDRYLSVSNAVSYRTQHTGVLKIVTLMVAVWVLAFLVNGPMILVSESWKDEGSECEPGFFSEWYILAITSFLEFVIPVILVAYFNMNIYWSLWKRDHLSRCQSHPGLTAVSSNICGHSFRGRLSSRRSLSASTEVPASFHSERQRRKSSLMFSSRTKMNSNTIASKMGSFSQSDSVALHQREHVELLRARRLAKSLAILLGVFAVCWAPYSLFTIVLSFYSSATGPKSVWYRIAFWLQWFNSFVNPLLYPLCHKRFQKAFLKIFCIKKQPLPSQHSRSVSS

[7] = average; cited from earlier work
[8] = test system: adrenergic α2; details: ref Supplementary Table 3; cited from earlier work
[9] = molecular target: μ Opioid receptor (Homo sapiens, UniProt P35372); assay: biochemical; format: binding
Chain of μ Opioid receptor (P35372 whole entry, species assumed): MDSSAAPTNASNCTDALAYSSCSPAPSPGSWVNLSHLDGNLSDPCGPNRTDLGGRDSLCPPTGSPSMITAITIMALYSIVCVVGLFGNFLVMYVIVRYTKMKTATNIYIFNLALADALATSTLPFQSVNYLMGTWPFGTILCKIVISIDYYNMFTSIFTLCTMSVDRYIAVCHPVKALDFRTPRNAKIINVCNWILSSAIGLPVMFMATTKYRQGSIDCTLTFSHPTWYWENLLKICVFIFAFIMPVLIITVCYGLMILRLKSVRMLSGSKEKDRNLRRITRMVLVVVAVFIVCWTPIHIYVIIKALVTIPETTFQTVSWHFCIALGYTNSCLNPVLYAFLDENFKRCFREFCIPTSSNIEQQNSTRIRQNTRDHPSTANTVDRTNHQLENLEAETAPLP

[10] = molecular target: T1, α2A adrenergic receptor (Homo sapiens, UniProt P08913); assay: Radioligand competition binding, α2A
T1 sequence (P08913 1-465): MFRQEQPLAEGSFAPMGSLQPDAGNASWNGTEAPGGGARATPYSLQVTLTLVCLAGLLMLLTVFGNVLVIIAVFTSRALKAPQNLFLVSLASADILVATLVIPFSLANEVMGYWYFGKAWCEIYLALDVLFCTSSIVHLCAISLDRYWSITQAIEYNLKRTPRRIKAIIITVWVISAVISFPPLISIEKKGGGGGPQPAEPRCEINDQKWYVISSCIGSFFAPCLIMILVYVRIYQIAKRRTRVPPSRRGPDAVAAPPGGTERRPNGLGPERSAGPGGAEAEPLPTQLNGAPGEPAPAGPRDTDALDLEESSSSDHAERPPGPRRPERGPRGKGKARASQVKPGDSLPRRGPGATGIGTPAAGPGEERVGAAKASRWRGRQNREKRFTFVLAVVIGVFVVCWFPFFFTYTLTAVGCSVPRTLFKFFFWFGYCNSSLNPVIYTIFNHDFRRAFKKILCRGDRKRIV

Chain of 5-HT1D receptor (P28221 whole entry): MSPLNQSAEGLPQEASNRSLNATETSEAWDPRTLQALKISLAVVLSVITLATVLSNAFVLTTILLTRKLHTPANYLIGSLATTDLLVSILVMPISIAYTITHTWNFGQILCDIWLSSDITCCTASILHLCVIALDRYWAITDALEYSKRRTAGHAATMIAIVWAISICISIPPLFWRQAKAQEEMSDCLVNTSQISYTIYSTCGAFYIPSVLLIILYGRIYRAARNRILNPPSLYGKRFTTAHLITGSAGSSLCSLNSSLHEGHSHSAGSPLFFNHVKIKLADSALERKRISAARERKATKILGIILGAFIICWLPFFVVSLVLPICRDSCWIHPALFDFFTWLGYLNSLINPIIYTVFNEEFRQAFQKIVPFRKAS
Chain of human 5-HT2A receptor (P28223 whole entry): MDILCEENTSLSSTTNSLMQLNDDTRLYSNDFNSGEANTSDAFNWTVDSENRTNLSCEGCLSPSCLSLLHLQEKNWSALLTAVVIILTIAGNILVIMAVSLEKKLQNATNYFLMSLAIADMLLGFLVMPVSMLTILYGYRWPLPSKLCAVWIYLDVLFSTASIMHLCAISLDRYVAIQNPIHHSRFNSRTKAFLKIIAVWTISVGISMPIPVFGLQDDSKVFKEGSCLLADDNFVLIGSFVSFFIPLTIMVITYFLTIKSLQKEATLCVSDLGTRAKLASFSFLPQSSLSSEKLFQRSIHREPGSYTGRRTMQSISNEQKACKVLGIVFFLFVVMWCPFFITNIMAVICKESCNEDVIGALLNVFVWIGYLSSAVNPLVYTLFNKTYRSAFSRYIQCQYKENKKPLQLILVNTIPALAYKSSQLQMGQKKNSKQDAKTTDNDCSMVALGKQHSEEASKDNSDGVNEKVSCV

CCN[C@H]1CN(CCCOC)S(=O)(=O)c2sc(S(N)(=O)=O)cc21 [Azopt, brinzolamide]
binds carbonic anhydrase II at [1]: 3 nM

CN(C)CCc1c[nH]c2ccccc12 [DMT, N,N-dimethyltryptamine]
EC50 [2]: 0.118 ± 0.029 µM | Kd [3]: 14.8 µM

O=c1[nH]c2ccccc2n1CCCN1CCC(n2c(=O)[nH]c3cc(Cl)ccc32)CC1 [Motilium]
IC50 [4]: 5 µM

CCCN1C[C@H](CSC)C[C@@H]2c3cccc4[nH]cc(c34)C[C@H]21 [Permax, pergolide]
reported to bind the 5-HT1D receptor at [5]: 13 nM

CC(C)Nc1cccnc1N1CCN(C(=O)c2cc3cc(NS(C)(=O)=O)ccc3[nH]2)CC1 [Rescriptor, Delavirdine]
Ki [6]: 5.3 µM | steady-state plasma concentration Cmin [7]: 15 µM

CCN(CC)C(=O)N[C@H]1C=C2c3cccc4[nH]cc(c34)C[C@H]2N(C)C1 [Revanil, lisuride]
reported to bind adrenergic α2 at [8]: 0.055 nM

CC(C(O)c1ccc(O)cc1)N1CCC(Cc2ccccc2)CC1 (stereo not shown) [Vadilex, Ifenprodil]
Ki [9]: 1.4 µM

COc1cc2c(cc1OC)C1CC(=O)C(CC(C)C)CN1CC2 (stereo not shown) [Xenazine]
Ki [10]: 0.96 µM

From article PMC2784146 (Nature, 2009)
